Measurements from US12630525B2, “Triazinylmethylcycloalkylcarboxylic acid derivative, and pharmaceutical composition and use thereof” (SHANGHAI HAIYAN PHARMACEUTICAL TECHNOLOGY CO., LTD., priority 2021, dated 2026).
Blank lines part the entries; values can stand above or below the compound they belong to.

Tests used:
hP2X2/3 = target: T1, hP2X2/3 (Homo sapiens, UniProt P56373+Q9UBL9); assay: FLIPR assay, antagonistic activity against hP2X2/3 receptor (selectivity versus P2X3); format: cell-based; conditions: Multiple of P2X2/3 inhibitory activity and P2X3 inhibitory activity
T1 construct: host or cells: 1321N1
T1 sequence (P56373 1-397): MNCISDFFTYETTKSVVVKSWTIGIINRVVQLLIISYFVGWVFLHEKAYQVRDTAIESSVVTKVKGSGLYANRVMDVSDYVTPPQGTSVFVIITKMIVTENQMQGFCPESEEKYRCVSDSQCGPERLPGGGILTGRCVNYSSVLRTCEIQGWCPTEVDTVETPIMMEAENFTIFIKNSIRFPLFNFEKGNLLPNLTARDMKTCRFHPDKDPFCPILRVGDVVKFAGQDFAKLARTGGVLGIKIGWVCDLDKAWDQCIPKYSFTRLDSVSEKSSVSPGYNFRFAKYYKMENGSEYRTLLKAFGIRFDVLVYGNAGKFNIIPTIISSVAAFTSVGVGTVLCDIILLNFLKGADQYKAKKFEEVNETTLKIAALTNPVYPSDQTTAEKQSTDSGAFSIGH
T1 sequence (Q9UBL9 1-471): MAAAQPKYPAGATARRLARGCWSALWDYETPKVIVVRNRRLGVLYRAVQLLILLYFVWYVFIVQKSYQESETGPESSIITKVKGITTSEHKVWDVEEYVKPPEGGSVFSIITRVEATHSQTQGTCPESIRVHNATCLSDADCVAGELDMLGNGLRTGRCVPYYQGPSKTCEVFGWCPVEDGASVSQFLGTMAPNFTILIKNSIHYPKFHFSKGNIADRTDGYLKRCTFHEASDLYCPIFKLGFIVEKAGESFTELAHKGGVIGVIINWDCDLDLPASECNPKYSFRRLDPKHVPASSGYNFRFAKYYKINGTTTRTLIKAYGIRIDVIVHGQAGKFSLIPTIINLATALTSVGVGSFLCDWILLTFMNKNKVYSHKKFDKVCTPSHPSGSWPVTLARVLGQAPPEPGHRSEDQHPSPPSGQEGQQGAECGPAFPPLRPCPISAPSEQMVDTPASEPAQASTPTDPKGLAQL
Protocol: (§1) Test Example 1: Screening Compounds for Antagonistic Activity Against hP2X3/hP2X2/3 Receptors by FLIPR Assay
(§2) Cell preparation: Cells 1321N1/hP2X3 and cells 1321N1/hP2X2/3 (supplier: Chempartner) were […] with Versene digestive solution. After centrifugation, the cells were suspended using plate medium (DMEM+[…]) and counted. The cells were adjusted to 3×10^5 cells/mL. Each of the 384-well test plates was covered with 50 μL cells and cultured in a […] incubator at 37° C. for 16 hours to 24 hours.
(§3) Compound preparation: 1. Test sample: test compound at a concentration 180 times the required concentration (54 mM DMSO stock solution) was prepared using DMSO in a 384-well polypropylene microporous plate conforming to Echo standard, 500 nL of which was added to each well of a 384-well compound plate. Then 30 μL of test buffer (1*HIBSS+2 mM CaCl2+20 mM HEPES containing 1.26 mM Ca^2+) was added to each well. The 384-well compound plate was shook for 20 min to 40 min to mix well.
(§4) 2. Agonist: agonist ([…]) at a concentration 3 times the required concentration (the final concentration of 3000 nM is required for both hP2X3 and hP2X2/3 cells) was prepared with the test buffer. 45 μL of agonist was added to each well of the 384-well compound plate.
(§5) Dye incubation: The cell plate was taken out. The supernatant was removed. 30 uL of Dye (FLTPR® Calcium 4 Assay Kit, test buffer diluted) was added to each well. The cells were incubated for 1 hour.
(§6) FLTPR detection: 15 μL of compound was added to each well of the cell plate (FLTPR instrument sampling). After 15 minutes, 22.5 μL of agonist was added to each well. Fluorescence signals (excitation wavelength of 470 nm to 495 nm, emission wavelength of 515 nm to 575 nm) were detected.
(§7) Data processing: the difference between the peak value and the valley value of the signal was taken as the basic data. The highest concentration of positive drug was taken as 100% inhibition rate, and DMSO data was taken as 0% inhibition rate. The inhibition curves of compounds were fitted by log (inhibitor) vs. response—Variable slope on Graphpad prism 6 and the IC50 value was calculated.
(§8) Experimental homogeneity standard: each plate was subjected to ≥12 max values (DMSO action results) and ≥12 min values (highest concentration positive drug action results), and the Z value was calculated. If Z≥0.5, it is considered that the parallel wells are homogenous and the data is reliable. The calculation formula for Z value is as follows: Z=1−3*(SDmax+SDmin)/([…]).

hP2X3 = target: T2, hP2X3 (Homo sapiens, UniProt P56373); assay: FLIPR assay, antagonistic activity against hP2X3 receptor; format: cell-based; conditions: 1321N1/hP2X3 cells, FLIPR Calcium 4, agonist 3000 nM; read-out: P2X3 (IC50/nM)
T2 construct: host or cells: 1321N1
T2 sequence (P56373 1-397): T1 sequence (P56373 1-397)
Protocol: as §1, §2, §3, §4, §5, §6, §7, §8

[1] = tested on: mechanical pain hypersensitivity in the rat CFA inflammatory pain model; assay: Analgesic effect in rat CFA inflammatory pain model (von Frey paw withdrawal threshold); format: in vivo, SD rats
Protocol: Test Example 2: Evaluation of Analgesic Effect of Rat CFA Inflammatory Pain Model
Experimental animals: 50 male SD rats with a weight of 230 g to 260 g were used. All the experimental animals were purchased from Beijing Weitonglihua Experimental Animal Technology Co., LTD. After purchase, food and water were supplied in the way of free feeding. The feeding temperature was 20° C. to 25° C. The humidity was 40% to 70%. The animals were kept in separate cages and labeled using the tail labeling method.
An emulsion was obtained by mixing full Freund's adjuvant with saline in equal amount. A certain amount of the emulsion was injected subcutaneously into the rats. The animal was placed in a specially designed multi-unit metal mesh cage for pain detection and allowed to acclimate for 15 minutes. After the animal's grooming and investigation activities were completed and acclimated to the detection environment, a series of calibrated von Frey filaments (0.4, 0.6, 1.0, 1.4, 2, 4, 6, 8, 10, 15) were continuously applied to the back paw until a withdrawal reflex reaction occurred. The tester conducted blind test on the experiment, and the experimental results were expressed as “mean±standard deviation”. The data of each group are analyzed by GraphPad Prism 5 t test, with statistical difference at P<0.05.

[2] = 14-day toxicity test with toxicokinetics in SD rats; format: in vivo; conditions: for AUC / Cmax: SD, rat, blood, 100 mg/kg
Protocol: Test Example 3: Toxicity Test
There were 16 male and 16 female SD rats with SPF grade. Male SD rats weighed about 240 g and were 6 to 9 weeks old. Female SD rats weighed about 200 g and were 6 to 9 weeks old. All the experimental animals were purchased from Zhejiang Weitonglihua Experimental Animal Technology Co., LTD. After purchase, food and water were supplied in the way of free feeding. The feeding temperature was 20° C. to 26° C. The humidity was 40% to 70%. The number of air changes per hour was ≥15 times, and 100% fresh air was used. Automatic lighting and alternating light and dark every 12 hours were used. Male and female are kept in separate cages, with no more than 5 rats per cage.
Animals in each group were randomly divided according to gender and body weight, and were given the medicament once a day for 14 days according to the dose design in Table 7. Toxicokinetic blood sampling was performed in each dose group 30 min, 1 hr, 4 hr, 7 hr, 10 hr and 24 hr before and after the first and last administration, respectively, to investigate the toxicokinetic process in SD rats of each group.

[3] = Exposure at the effective dose in the rat pain model (basis for safety windows); conditions: in vivo
Description: Calculation Basis for Safety Windows:

[4] = female, female SD rats, 100 mg/kg once a day for 14 days, last administration, read-out: AUC0t Last administration
[5] = female, female SD rats, 100 mg/kg once a day for 14 days, last administration, read-out: Cmax Last administration
[6] = female, female SD rats, 100 mg/kg once a day, first administration, read-out: AUC0t First administration
[7] = female, female SD rats, 100 mg/kg once a day, first administration, read-out: Cmax First administration
[8] = male, male SD rats, 100 mg/kg once a day for 14 days, last administration, read-out: AUC0t Last administration
[9] = male, male SD rats, 100 mg/kg once a day for 14 days, last administration, read-out: Cmax Last administration
[10] = male, male SD rats, 100 mg/kg once a day, first administration, read-out: AUC0t First administration
[11] = male, male SD rats, 100 mg/kg once a day, first administration, read-out: Cmax First administration

- Selectivity multiple (hP2X2/3): 27
Structure (SMILES): O=C(O)[C@@H]1C[C@@H]1Cn1c(=O)[nH]/c(=N\c2ccc(Oc3ccccn3)cc2)n(Cc2ccc(Cl)cc2)c1=O (racemic) [Compound H1, (±) cis-2-((3-(4-chlorobenzyl)-2,6-dioxo-4-(4-(pyridin-2-yloxy)phenylimino)-1,3,5-triazin-1-yl)methyl)cyclopropanecarboxylic acid]

- Selectivity multiple (hP2X2/3): 151
Structure (SMILES): O=C(O)[C@@H]1C[C@H]1Cn1c(=O)[nH]/c(=N\c2ccc(Oc3ccccn3)cc2)n(Cc2ccc(Cl)cc2)c1=O (racemic) [Compound H2, (±) trans-2-((3-(4-chlorobenzyl)-2,6-dioxo-4-(4-(pyridin-2-yloxy)phenylimino)-1,3,5-triazin-1-yl)methyl)cyclopropanecarboxylic acid]

- Selectivity multiple (hP2X2/3): 251
Structure (SMILES): O=C(O)[C@@H]1C[C@H]1Cn1c(=O)[nH]/c(=N\c2ccc(Oc3ccc(F)cn3)cc2)n(Cc2ccc(Cl)cc2)c1=O (racemic) [Compound H5, (±) trans-2-((3-(4-chlorobenzyl)-4-((4-((5-fluoropyridin-2-yl)oxy)phenyl)imino)-2,6-dioxo-1,3,5-triazin-1-yl)methyl)cyclopropan-1-carboxylic acid]

- IC50 (hP2X3): 73 nM
- Selectivity multiple (hP2X2/3): 114
Structure (SMILES): O=C(O)[C@@H]1C[C@H]1Cn1c(=O)[nH]/c(=N\c2ccc(Oc3cccc(F)n3)cc2)n(Cc2ccc(Cl)cc2)c1=O (racemic) [Compound H7, (±) trans-2-((3-(4-chlorobenzyl)-4-((4-((6-fluoropyridin-2-yl)oxy)phenyl)imino)-2,6-dioxo-1,3,5-triazin-1-yl)methyl)cyclopropan-1-carboxylic acid]

- IC50 (hP2X3): 148 nM
- Selectivity multiple (hP2X2/3): 238
Structure (SMILES): O=C(O)[C@@H]1C[C@H]1Cn1c(=O)[nH]/c(=N\c2ccc(Oc3ncccc3F)cc2)n(Cc2ccc(Cl)cc2)c1=O (racemic) [Compound H8, (±) trans-2-((3-(4-chlorobenzyl)-4-((4-((3-fluoropyridin-2-yl)oxy)phenyl)imino)-2,6-dioxo-1,3,5-triazin-1-yl)methyl)cyclopropane-1-carboxylic acid]

Structure (SMILES): C[C@@H](Cn1c(=O)nc(Nc2ccc(Oc3ccccn3)cc2)n(Cc2ccc(Cl)cc2)c1=O)C(=O)O [Compound D1, reference compound]
- effective dose in the rat pain model ([1]; oral): 60 mg/kg
- AUC [2, 4]: 2150 µg·h/mL
- Cmax [2, 5]: 156 µg/mL
- AUC [2, 6]: 2420 µg·h/mL
- Cmax [2, 7]: 185 µg/mL
- AUC [2, 8]: 2540 µg·h/mL
- Cmax [2, 9]: 188 µg/mL
- AUC [2, 10]: 2770 µg·h/mL
- Cmax [2, 11]: 200 µg/mL
- AUC ([3]; 60 mg/kg): ~1570 µg·h/mL
- Cmax ([3]; 60 mg/kg): ~141 µg/mL

Structure (SMILES): O=C(O)[C@H]1C[C@@H]1Cn1c(=O)[nH]/c(=N\c2ccc(Oc3ccc(F)cn3)cc2)n(Cc2ccc(Cl)cc2)c1=O [Compound H5-P1, (1S,2S)-2-((3-(4-chlorobenzyl)-4-((4-((5-fluoropyridin-2-yl)oxy)phenyl)imino)-2,6-dioxo-1,3,5-triazin-1-yl)methyl)cyclopropan-1-carboxylic acid]
- IC50 (hP2X3): 23 nM
- Selectivity multiple (hP2X2/3): 590
- analgesic effect 4 hours after administration ([1]; 60 mg/kg oral, 4 hours after administration): good analgesic effect
- mechanical pain hypersensitivity (paw withdrawal threshold) ([1]; rat CFA model, oral, 30 and 60 mg/kg, FIG. 2 and FIG. 3): significantly inhibits
- effective dose in the rat pain model ([1]; oral): 30 mg/kg
- AUC [2, 4]: 1740 µg·h/mL
- Cmax [2, 5]: 135 µg/mL
- AUC [2, 6]: 1420 µg·h/mL
- Cmax [2, 7]: 112 µg/mL
- safety window (in words) ([2]; from the data in Table 8): high
- AUC [2, 8]: 2390 µg·h/mL
- Cmax [2, 9]: 162 µg/mL
- AUC [2, 10]: 1460 µg·h/mL
- Cmax [2, 11]: 101 µg/mL
- AUC ([3]; 30 mg/kg): ~249 µg·h/mL
- Cmax ([3]; 30 mg/kg): ~18.4 µg/mL

- IC50 (hP2X3): 106 nM
- Selectivity multiple (hP2X2/3): 176
Structure (SMILES): O=C(O)[C@@H]1C[C@H]1Cn1c(=O)[nH]c(=Nc2ccc(Oc3ccc(F)cn3)cc2)n(Cc2ccc(Cl)cc2)c1=O [Compound H5-P2, (1R,2R)-2-((3-(4-chlorobenzyl)-4-((4-((5-fluoropyridin-2-yl)oxy)phenyl)imino)-2,6-dioxo-1,3,5-triazin-1-yl)methyl)cyclopropan-1-carboxylic acid]
